In patent US6605722B2, “Tyrosine derivatives with anti-leukotrienen activity” (Rotta Research Laboratorium S.p.A., priority 2000, dated 2003):
Structures can show the parent of a compound that is named as a salt.

Experiments:
[1] = tested on: sensitized guinea-pigs (ovalbumin challenge); experiment: Bronchoconstriction after aerosolized ovalbumin challenge in sensitized guinea-pigs; type: in vivo; details: 0.3 mg/kg orally 30 minutes before aerosolized ovalbumin challenge
[2] = tested on: contractions induced by LTD4 on isolated guinea-pig trachea; experiment: Antagonism of contractions induced by LTD4 on isolated guinea-pig trachea in vitro (Schild analysis); details: for pA2 calculated according to Schild: LTD4 contraction; for pA2 calculated according to Schild / ED50 of LTD4 (cumulative dose-response curve): isolated guinea-pig trachea
Experimental: J. Physiol. Pharmacol. 67 (1989): 17-28], with slight modifications. […] The results were expressed as the effect as a percentage of the maximum contraction induced by 300 μM acetylcholine.

[3] = tested on: mice; experiment: Acute toxicity (LD50) in mice; type: in vivo; details: oral route; effective dose 0.3 mg/kg
From the text: (§1) The compounds according to the invention also have a low toxicity profile.

[4] = Acute toxicity (LD50) in mice; type: in vivo; details: mouse, in vivo
From the text: as §1

[5] = molecular target: T1, peptide-leukotriene receptor (Cavia porcellus, UniProt Q2NNR5); experiment: Inhibition of the binding of [3H]-LTD4 to guinea-pig lung membranes; details: for IC50: 0.3 nM [3H]-LTD4, guinea-pig lung membranes, 30 minutes at 25° C., read-out: IC50, concentration of antagonist displacing 50% of the [3H]-LTD4 ligand from the receptor; for affinity compared with the specific LTD4 agonist: guinea-pig lung membranes, nanomolar level
T1 construct: from tissue; host or cells: guinea-pig lung membranes
T1 sequence (Q2NNR5 1-340): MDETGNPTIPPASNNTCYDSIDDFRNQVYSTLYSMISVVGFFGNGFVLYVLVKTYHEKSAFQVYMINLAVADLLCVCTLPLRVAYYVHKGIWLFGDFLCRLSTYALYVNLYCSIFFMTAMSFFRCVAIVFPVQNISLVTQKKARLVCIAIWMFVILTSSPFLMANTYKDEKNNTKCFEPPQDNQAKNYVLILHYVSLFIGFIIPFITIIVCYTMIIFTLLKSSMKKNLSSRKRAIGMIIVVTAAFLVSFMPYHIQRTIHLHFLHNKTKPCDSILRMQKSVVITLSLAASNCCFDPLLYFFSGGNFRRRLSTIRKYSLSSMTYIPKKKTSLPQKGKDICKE
Experimental: The method described by Frey et al. [Eur. J. Pharmacol. 244 (1993): 239-250] was followed, with slight modifications.
The separation of the bound from the free was performed by rapid filtration on Whatman GF/B paper filters.

[6] = Plasma levels in rats (oral bio-availability); type: in vivo; details: 20 mg/kg
Experimental: In addition to the potency shown in vitro in the models given by way of example above, an advantageous and important characteristic of the compounds of the present invention is their optimal oral bio-availability. Thus, for example, Compound 1, administered to rats at a dose of 20 mg/kg, provided a maximum plasma concentration (CMAX) of about 20 mcg/ml 1 hour after administration.

[7] = antagonist concentration 100 nM

IC50 [5] [nM] | melting point | Structure (SMILES) | other results
117 | 212 °C | COc1ccc(C(=O)NC(Cc2ccc(OCc3ccc4ccccc4n3)cc2)C(=O)O)cc1 (stereo not shown) [Compound 5] | –
61.7 | – | O=C(NC(Cc1ccc(OCc2ccc3ccccc3n2)cc1)C(=O)O)c1ccc(-c2ccccc2)cc1 (stereo not shown) [Compound 8] | –
110 | 187 °C | O=C(NC(Cc1ccc(OCc2ccc3ccccc3n2)cc1)C(=O)O)c1cccc(Cl)c1 (stereo not shown) [Compound 4] | –
55.3 | 226 °C | O=C(NC(Cc1ccc(OCc2ccc3ccccc3n2)cc1)C(=O)O)c1c[nH]c2ccccc12 (stereo not shown) [Compound 24] | –
50.8 | 180 °C | Cn1cc(C(=O)NC(Cc2ccc(OCc3ccc4ccccc4n3)cc2)C(=O)O)c2ccccc21 (stereo not shown) [Compound 26] | –
20 | – | O=C(NC(Cc1ccc(OCc2ccc3ccccc3n2)cc1)C(=O)O)c1ccc2ccccc2n1 (racemic) [Compound 1, O-(2-quinolinylmethyl)-N-quinaldoyl-D,L-tyrosine] | time of maximum plasma concentration after administration [6]: 1 h; AUC ([6]; rat, plasma, oral): ~50000 ng·h/mL; concentration at 8 h ([6]; rat, plasma, oral, 8 h, read-out: plasma concentration 8 h after administration): > 2000 ng/mL; Cmax ([6]; rat, plasma, oral, read-out: maximum plasma concentration (CMAX)): ~20000 ng/mL; pA2 calculated according to Schild [2]: pA2 = 7.88; ED50 of LTD4 (cumulative dose-response curve) ([2]; antagonist concentration 10 nM): 4.53 nM; ED50 of LTD4 (cumulative dose-response curve) ([2]; antagonist concentration 30 nM): 15.31 nM; ED50 of LTD4 (cumulative dose-response curve) [2, 7]: 31.75 nM
64.1 | 157 °C | O=C(NC(Cc1ccc(OCc2ccc3ccccc3n2)cc1)C(=O)O)c1nccc2ccccc12 (stereo not shown) [Compound 20] | –
217 | 193 °C | O=C(NC(Cc1ccc(OCc2ccc3ccc(Cl)cc3n2)cc1)C(=O)O)c1ccc(-c2ccccc2)cc1 (stereo not shown) [Compound 9] | –
> 300 | 232 °C | O=C(NC(Cc1ccc(OCc2ccc3ccccc3n2)cc1)C(=O)O)c1cnnc2ccccc12 (stereo not shown) [Compound 28] | –
9.7 | 204 °C | O=C(NC(Cc1ccc(OCc2ccc3ccccc3n2)cc1)C(=O)O)c1cc2ccccc2cn1 (stereo not shown) [Compound 21] | –
135 | 248 °C | O=C(NC(Cc1ccc(OCc2ccc3ccccc3n2)cc1)C(=O)O)c1ccc2ncccc2c1 (stereo not shown) [Compound 13] | –
42.7 | 211 °C | O=C(NC(Cc1ccc(OCc2ccc3ccccc3n2)cc1)C(=O)O)c1ccc(C(F)(F)F)cc1 (stereo not shown) [Compound 6] | –
– | 140 °C | O=C(NC(Cc1ccc(OCc2ccc3ccccc3n2)cc1)C(=O)O)c1ccccc1 (stereo not shown) (as salt: hydrochloride) [Compound 2] | –
181 | 155 °C | O=C(NC(Cc1ccc(OCc2ccc3ccccc3n2)cc1)C(=O)O)c1ccccc1-c1ccccc1 (stereo not shown) [Compound 7] | –
161 | > 240 °C | O=C(NC(Cc1ccc(OCc2ccc3ccccc3n2)cc1)C(=O)O)c1cnc2ccccc2n1 (stereo not shown) [Compound 27] | –
11.3 | 214 °C | Cc1ccc2ccc(COc3ccc(CC(NC(=O)c4ccc5ccccc5n4)C(=O)O)cc3)nc2c1 (stereo not shown) [Compound 15] | –

IC50 [5] [nM] | melting point | Structure (SMILES) | other results
5.3 | 227 °C | O=C(NC(Cc1ccc(OCc2ccc3ccc(F)cc3n2)cc1)C(=O)O)c1cc2ccccc2cn1 (stereo not shown) [Compound 22] | Kb ([2]; Cavia porcellus, equivalent to the calculated pA2): 1.73 nM; ED50 of LTD4 (cumulative dose-response curve) ([2]; antagonist concentration 10 nM): 8.03 nM; ED50 of LTD4 (cumulative dose-response curve) ([2]; antagonist concentration 30 nM): 13.71 nM; ED50 of LTD4 (cumulative dose-response curve) [2, 7]: 25.39 nM; affinity compared with the specific LTD4 agonist [5]: comparable
190 | – | O=C(NC(Cc1ccc(OCc2ccc3ccccc3n2)cc1)C(=O)O)c1ccccc1 (stereo not shown) [Compound 2] | –
103 | 223 °C | O=C(NC(Cc1ccc(OCc2ccc3ccccc3n2)cc1)C(=O)O)c1cc2ccccc2[nH]1 (stereo not shown) [Compound 23] | –
200 | 224 °C | O=C(NC(Cc1ccc(OCc2ccc3ccccc3n2)cc1)C(=O)O)c1ccnc2ccccc12 (stereo not shown) [Compound 16] | –
24.1 | 170 °C | O=C(NC(Cc1ccc(OCc2ccc3ccccc3n2)cc1)C(=O)O)c1ccc(-c2ccccc2)cn1 (stereo not shown) [Compound 30] | –
32.3 | 171 °C | O=C(NC(Cc1ccc(OCc2ccc3ccccc3n2)cc1)C(=O)O)c1ccccn1 (stereo not shown) [Compound 10] | –
64 | 141 °C (dec.) | O=C(NC(Cc1ccc(OCc2ccc3ccccc3n2)cc1)C(=O)O)c1cccc2cccnc12 (stereo not shown) [Compound 14] | –
90.3 | > 250 °C | O=C(NC(Cc1ccc(OCc2ccc3ccccc3n2)cc1)C(=O)O)c1ccc2nc[nH]c2c1 (stereo not shown) [Compound 29] | –
76 | 230 °C | O=C(NC(Cc1ccc(OCc2ccc3ccccc3n2)cc1)C(=O)O)c1cnc2ccccc2c1 (stereo not shown) [Compound 12] | –
39 | 196 °C | O=C(NC(Cc1ccc(OCc2ccc3ccccc3n2)cc1)C(=O)O)c1ccc2ccccc2c1 (stereo not shown) [Compound 11] | –
– | 230 °C (dec.) | O=C(NC(Cc1ccc(OCc2ccc3ccccc3n2)cc1)C(=O)O)c1ccc(-c2ccccc2)cc1 (stereo not shown) (as salt: hydrochloride) [Compound 8] | –
34.8 | 198 °C | Cn1c(C(=O)NC(Cc2ccc(OCc3ccc4ccccc4n3)cc2)C(=O)O)cc2ccccc21 (stereo not shown) [Compound 25] | –
12.2 | – | O=C(N[C@H](Cc1ccc(OCc2ccc3ccc(F)cc3n2)cc1)C(=O)O)c1ccc2ccccc2n1 [Compound 19, O-(7-fluoro-2-quinolinylmethyl)-N-quinaldoyl-D-tyrosine] | –
5.5 | – | O=C(N[C@@H](Cc1ccc(OCc2ccc3ccc(F)cc3n2)cc1)C(=O)O)c1ccc2ccccc2n1 [Compound 18, O-(7-fluoro-2-quinolinylmethyl)-N-quinaldoyl-L-tyrosine] | affinity compared with the specific LTD4 agonist [5]: comparable
98.1 | 197 °C | O=C(NC(Cc1ccc(OCc2ccc3ccccc3n2)cc1)C(=O)O)c1ccc(Cl)cc1 (stereo not shown) [Compound 3] | –

Structure (SMILES) | IC50 [5] [nM] | melting point | other results
O=C(NC(Cc1ccc(OCc2ccc3ccc(F)cc3n2)cc1)C(=O)O)c1ccc2ccccc2n1 (racemic) [Compound 17, O-(7-fluoro-2-quinolinylmethyl)-N-quinaldoyl-D,L-tyrosine] | 7.9 | – | inhibition of the signs of bronchoconstriction (first appearance of abdominal contractions) [1]: completely inhibited; pA2 calculated according to Schild [2]: pA2 = 8.53; ED50 of LTD4 (cumulative dose-response curve) ([2]; antagonist concentration 3 nM): 4.69 nM; ED50 of LTD4 (cumulative dose-response curve) ([2]; antagonist concentration 30 nM): 9.48 nM; ED50 of LTD4 (cumulative dose-response curve) ([2]; antagonist concentration 300 nM): 19.78 nM; acute toxic oral dose in mice relative to the pharmacologically effective dose [3]: more than 1000 times; LD50 ([4]; iv): > 50 mg/kg; LD50 ([4]; po): > 300 mg/kg; affinity compared with the specific LTD4 agonist [5]: comparable
